Data as given in ChEMBL document CHEMBL1201862, “PubChem BioAssay data set” (2004).
The source made the active and inactive calls.

Experiments:
CAAX prenyl protease 2 = target: T1, CAAX prenyl protease 2 (Saccharomyces cerevisiae S288c, UniProt Q03530); type: biochemical
T1 sequence (Q03530 whole entry): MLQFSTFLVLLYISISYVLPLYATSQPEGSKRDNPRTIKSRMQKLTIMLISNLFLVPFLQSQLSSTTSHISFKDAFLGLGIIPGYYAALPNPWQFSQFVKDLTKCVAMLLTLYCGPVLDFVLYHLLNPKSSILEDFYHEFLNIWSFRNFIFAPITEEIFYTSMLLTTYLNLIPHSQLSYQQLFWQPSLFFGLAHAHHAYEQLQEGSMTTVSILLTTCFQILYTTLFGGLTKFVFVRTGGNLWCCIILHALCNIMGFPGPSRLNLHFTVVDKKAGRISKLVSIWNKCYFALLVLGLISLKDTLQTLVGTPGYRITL

CAAX prenyl protease 1 = CAAX prenyl protease 1 (Saccharomyces cerevisiae S288c, UniProt P47154); experiment: Ste24 protease inhibitors, dose response, biochemical, S. cerevisiae, plate reader, cherry-pick (AID 488815)
Paired box protein Pax-8 = Paired box protein Pax-8 (Homo sapiens, UniProt Q06710); experiment: inhibitors of PAX8-driven TPO luciferase reporter, dose response, RMG-I cells, cherry-pick (AID 687027); type: functional, cell-based;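 also: luciferase reporter driven by Pax8 target thyroperoxidase promoter measured by SteadyGlo luminescence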
[1] = ADAM10 inhibitors, peptide cleavage, dose response, biochemical, QFRET (AID 743254);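 also: ADAM10 enzyme with the DM2 quenched FRET peptide as substrate; EDANS fluorescence gain as the protease cuts the substrate; inhibitor potency against ADAM10 proteolytic activity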
[2] = target: Disintegrin and metalloproteinase domain-containing protein 17 (Homo sapiens, UniProt P78536); experiment: ADAM17 protease inhibitors, dose response, counter-screen for ADAM10 exosite inhibitor project, biochemical, quenched FRET substrate (AID 743253)
[3] = target: T2, Dual specificity protein phosphatase 3 (Homo sapiens, UniProt P51452); experiment: VHR1 phosphatase inhibitors, primary screen, biochemical, absorbance, uHTS (AID 1654)
[4] = target: Guanyl-specific ribonuclease T1 (Aspergillus oryzae (strain ATCC 42149 / RIB 40), UniProt P00651); experiment: RNase T1 inhibitors, dose response, counter-screen for TPT1 inhibitor project, biochemical, fluorescence polarization, 1536-well (AID 2167)
[5] = target: Likely tRNA 2'-phosphotransferase (Candida albicans (strain SC5314 / ATCC MYA-2876) (Yeast), UniProt Q5A7N4); experiment: TPT1 tRNA phosphotransferase inhibitors, dose response, biochemical, fluorescence polarization (AID 2160)
[6] = target: T2, Dual specificity protein phosphatase 3; experiment: VHR1 phosphatase inhibitors, biochemical (AID 1878)
[7] = target: T3, Dual specificity protein phosphatase 6 (Rattus norvegicus, UniProt Q64346); experiment: MKP-3 phosphatase inhibitors, primary screen, biochemical, rat enzyme, in vitro (AID 425)
T3 sequence (Q64346 whole entry): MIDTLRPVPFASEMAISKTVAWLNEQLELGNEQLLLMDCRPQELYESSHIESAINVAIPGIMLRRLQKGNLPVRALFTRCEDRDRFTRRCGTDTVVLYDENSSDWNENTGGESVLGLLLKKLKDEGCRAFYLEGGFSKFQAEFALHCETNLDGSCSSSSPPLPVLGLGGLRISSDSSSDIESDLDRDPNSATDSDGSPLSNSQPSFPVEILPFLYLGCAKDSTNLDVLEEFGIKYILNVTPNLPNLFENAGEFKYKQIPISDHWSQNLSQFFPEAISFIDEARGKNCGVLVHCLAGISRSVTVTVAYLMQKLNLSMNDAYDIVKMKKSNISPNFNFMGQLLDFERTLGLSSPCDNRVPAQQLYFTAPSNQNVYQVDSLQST

Hexokinase HKDC1 = target: T4, Hexokinase HKDC1 (Homo sapiens, UniProt Q2TB90); experiment: HKDC1 hexokinase inhibitors, dose response, biochemical, W721R variant (AID 504729); type: functional
T4 sequence (Q2TB90 whole entry): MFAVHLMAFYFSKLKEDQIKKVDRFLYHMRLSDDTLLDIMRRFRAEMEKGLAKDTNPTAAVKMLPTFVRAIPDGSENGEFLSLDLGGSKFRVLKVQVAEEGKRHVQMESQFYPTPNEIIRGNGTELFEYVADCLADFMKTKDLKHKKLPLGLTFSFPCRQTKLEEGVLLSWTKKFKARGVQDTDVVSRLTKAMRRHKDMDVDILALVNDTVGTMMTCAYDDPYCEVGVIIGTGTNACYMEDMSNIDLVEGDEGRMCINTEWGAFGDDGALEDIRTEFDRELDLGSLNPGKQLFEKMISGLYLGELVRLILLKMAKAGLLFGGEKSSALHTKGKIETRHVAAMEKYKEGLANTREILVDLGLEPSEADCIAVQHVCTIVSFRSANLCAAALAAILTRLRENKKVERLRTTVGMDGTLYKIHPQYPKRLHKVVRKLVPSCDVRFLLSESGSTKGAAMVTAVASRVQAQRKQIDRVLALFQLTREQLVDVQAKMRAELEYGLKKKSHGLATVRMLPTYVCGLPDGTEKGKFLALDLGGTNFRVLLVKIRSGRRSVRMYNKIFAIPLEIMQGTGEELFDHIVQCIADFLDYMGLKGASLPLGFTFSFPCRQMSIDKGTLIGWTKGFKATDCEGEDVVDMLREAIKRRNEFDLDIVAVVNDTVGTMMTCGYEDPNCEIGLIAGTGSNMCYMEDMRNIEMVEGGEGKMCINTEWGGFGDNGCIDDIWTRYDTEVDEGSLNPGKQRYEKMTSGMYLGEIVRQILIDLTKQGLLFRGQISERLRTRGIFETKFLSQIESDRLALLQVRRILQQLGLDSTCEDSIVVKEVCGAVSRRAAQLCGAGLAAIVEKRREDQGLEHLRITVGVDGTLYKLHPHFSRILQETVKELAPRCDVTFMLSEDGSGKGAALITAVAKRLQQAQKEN

[8] = target: Lysine-specific demethylase 4A (Homo sapiens, UniProt O75164); experiment: JMJD2A histone demethylase inhibitors, dose response, selectivity assay for GASC-1 inhibitor project, biochemical, DELFIA europium, cherry-picked samples (AID 488840)
[9] = target: Lysine-specific demethylase 4C (Homo sapiens, UniProt Q9H3R0); experiment: GASC-1 (JMJD2C) histone demethylase inhibitors, dose response, biochemical, DELFIA europium, cherry-picked samples (AID 488835); type: functional
HEK293 [10] = experiment: cells; details: Homo sapiens
HEK293 [11] = experiment: cells; details: Homo sapiens; remark: listed apart in the source
[12] = inhibitors of firefly luciferase expression or activity, dose response, H4 neuroglioma cells, luminescence (AID 1990); type: functional, cell-based
[13] = luciferase reporter signal reduction – luminescence, H4-C neuroglioblastoma cells, dose response (AID 2458); type: functional, cell-based;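 also: H4 neuroglioblastoma cells stably carrying a luciferase reporter gene fusion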
BJ [14] = experiment: cytotoxicity toward BJ-TERT fibroblasts, dose response, cell-based, RAS-independent, luminescence (AID 1933); type: functional; details: Homo sapiens
cells = type: functional, cell-based
[15] = target: T5, Heat shock factor protein 1 (Mus musculus, UniProt P38532); experiment: inhibition of MG132-induced HSE-luciferase signal, confirmation, cell-based, NIH3T3, luminescence, dose retest (AID 2382); type: functional;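 also: NIH3T3 fibroblasts with HSF1-driven luciferase reporter stressed by proteasome inhibitor MG132; luminescence from HSF1-driven luciferase expression after 8 hours of MG132 stress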
T5 sequence (P38532 whole entry): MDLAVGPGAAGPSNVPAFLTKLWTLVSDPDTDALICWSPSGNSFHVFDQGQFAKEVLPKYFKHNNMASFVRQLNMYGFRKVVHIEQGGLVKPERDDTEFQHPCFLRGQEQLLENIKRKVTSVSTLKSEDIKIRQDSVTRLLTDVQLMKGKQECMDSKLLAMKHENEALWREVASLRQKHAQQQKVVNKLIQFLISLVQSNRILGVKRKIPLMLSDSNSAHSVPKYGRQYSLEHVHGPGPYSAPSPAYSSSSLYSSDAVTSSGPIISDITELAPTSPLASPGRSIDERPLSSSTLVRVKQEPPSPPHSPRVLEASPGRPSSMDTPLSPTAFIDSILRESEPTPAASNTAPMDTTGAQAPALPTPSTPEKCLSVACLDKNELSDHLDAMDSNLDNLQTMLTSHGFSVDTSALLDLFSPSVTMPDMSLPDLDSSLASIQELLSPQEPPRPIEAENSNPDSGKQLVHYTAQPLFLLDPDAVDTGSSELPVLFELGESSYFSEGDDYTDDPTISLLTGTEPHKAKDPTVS

[16] = inhibitors of SNCA 5'UTR-driven reporter translation, confirmation, H4 neuroglioma cells, luminescence (AID 1988); type: functional, cell-based
BJ [17] = experiment: cells; type: functional, cell-based; details: Homo sapiens
BJ [18] = experiment: cytotoxicity toward BJ-TERT-LT-ST fibroblasts, dose response, cell-based, RAS-independent, luminescence (AID 1935); type: functional; details: Homo sapiens;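 also: BJ fibroblasts immortalized with TERT plus LT and ST oncogenes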
[19] = cytotoxicity toward DRD oncogenic fibroblasts, dose response, cell-based, non-viral oncogenic, luminescence (AID 1934); type: functional; details: Homo sapiens
[20] = inhibitors of SNCA 5'UTR-driven translation, confirmation, luminescence, H4 neuroglioblastoma cells, dose confirmation (AID 2454); type: functional, cell-based;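 also: H4 neuroglioblastoma cells carrying an alpha-synuclein 5'UTR luciferase reporter; potency for inhibition of the luciferase signal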
Jurkat = experiment: antigen receptor-induced NF-kB inhibitors, dose response, Jurkat, luciferase reporter, luminescence, B- and T-cell (AID 489004); type: functional, cell-based; details: Homo sapiens;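 also: NF-kB luciferase reporter Jurkat cells stimulated with PMA plus ionomycin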
[21] = cytotoxicity in HEK-293T NF-kB-Luc cells, dose response, cytotoxicity control for B/T-cell NF-kB inhibitor project, cell-based, uHTS hits (AID 489019); type: functional;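 also: IC50 reflects cytotoxicity as loss of cell viability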
BJ [22] = experiment: cytotoxicity toward Ras-transformed BJeLR fibroblasts, dose response, cell-based, alamar blue fluorescence, cherrypicked samples (AID 2631); type: functional; details: Homo sapiens;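 also: confirmatory dose-response assay in RAS-dependent BJ fibroblasts engineered with TERT, LT and ST, with cytotoxicity read by fluorescence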
[23] = A549 cell cytotoxicity, dose response, cytotoxicity control, plate reader, cherry-pick, antagonist series (AID 743412); type: functional, cell-based
[24] = HepG2 cell cytotoxicity, dose response, cytotoxicity control, plate reader, cherry-pick, antagonist series (AID 743416); type: functional, cell-based
[25] = LGR2 antagonists, dose response, cell-based, HEK293, CRE-luciferase reporter, cherry pick, set 2 (AID 743343); type: functional;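 also: transfected cells were stimulated with diluted bursicon conditioned medium after compound addition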
[26] = MC4R antagonists, dose response, counter-screen for LGR2 antagonist project, cell-based, plate reader, cherry pick (AID 743444); type: functional;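 also: transfected HEK 293 cells stimulated with alpha-MSH peptide; potency of inhibitors of the alpha-MSH evoked signal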
[27] = HEK293 cell cytotoxicity, dose response, cytotoxicity control, plate reader, cherry-picked samples (AID 743446); type: functional, cell-based

T2 sequence (P51452 whole entry): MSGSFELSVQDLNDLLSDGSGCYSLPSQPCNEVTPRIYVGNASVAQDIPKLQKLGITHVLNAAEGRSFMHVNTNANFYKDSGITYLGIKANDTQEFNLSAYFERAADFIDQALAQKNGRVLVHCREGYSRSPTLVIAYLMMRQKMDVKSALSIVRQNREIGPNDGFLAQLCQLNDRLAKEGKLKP
Likely tRNA 2'-phosphotransferase, sequence (Q5A7N4 whole entry): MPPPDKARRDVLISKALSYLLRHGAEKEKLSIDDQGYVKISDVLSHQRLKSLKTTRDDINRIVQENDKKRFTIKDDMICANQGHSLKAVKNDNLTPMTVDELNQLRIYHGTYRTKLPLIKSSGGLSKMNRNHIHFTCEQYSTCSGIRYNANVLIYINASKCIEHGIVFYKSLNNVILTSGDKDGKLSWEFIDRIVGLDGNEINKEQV
Guanyl-specific ribonuclease T1, sequence (P00651 whole entry): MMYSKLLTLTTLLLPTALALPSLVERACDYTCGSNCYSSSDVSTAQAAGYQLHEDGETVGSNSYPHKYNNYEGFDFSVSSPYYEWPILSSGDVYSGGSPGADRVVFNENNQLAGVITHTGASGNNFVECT
Lysine-specific demethylase 4A, sequence (O75164 whole entry): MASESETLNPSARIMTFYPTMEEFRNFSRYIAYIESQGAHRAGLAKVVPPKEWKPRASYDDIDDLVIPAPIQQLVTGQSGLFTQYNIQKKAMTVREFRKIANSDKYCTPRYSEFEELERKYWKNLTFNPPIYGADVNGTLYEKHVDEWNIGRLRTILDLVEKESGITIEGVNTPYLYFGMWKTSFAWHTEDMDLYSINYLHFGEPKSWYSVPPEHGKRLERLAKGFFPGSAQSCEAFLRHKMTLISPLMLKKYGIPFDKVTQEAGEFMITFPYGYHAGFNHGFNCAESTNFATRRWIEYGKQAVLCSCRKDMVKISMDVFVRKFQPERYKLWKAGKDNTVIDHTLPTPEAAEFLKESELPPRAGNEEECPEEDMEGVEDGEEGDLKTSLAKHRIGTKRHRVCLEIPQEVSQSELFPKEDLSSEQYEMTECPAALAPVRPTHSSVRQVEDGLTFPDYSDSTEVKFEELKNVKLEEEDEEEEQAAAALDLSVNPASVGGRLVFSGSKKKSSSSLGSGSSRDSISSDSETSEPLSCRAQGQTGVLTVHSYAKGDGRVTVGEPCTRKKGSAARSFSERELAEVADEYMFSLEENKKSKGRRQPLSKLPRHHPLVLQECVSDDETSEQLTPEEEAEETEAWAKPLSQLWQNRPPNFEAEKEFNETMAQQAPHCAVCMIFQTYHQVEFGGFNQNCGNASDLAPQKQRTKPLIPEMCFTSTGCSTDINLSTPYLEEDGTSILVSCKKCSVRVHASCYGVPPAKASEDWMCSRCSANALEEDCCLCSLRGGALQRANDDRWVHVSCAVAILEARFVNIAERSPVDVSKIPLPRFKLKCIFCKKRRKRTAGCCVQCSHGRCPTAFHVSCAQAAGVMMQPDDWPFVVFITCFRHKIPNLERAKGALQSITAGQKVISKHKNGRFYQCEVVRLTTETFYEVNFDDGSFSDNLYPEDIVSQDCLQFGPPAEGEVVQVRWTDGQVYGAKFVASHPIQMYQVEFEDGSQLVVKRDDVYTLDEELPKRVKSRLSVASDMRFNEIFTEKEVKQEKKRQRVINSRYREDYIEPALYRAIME
CAAX prenyl protease 1, sequence (P47154 whole entry): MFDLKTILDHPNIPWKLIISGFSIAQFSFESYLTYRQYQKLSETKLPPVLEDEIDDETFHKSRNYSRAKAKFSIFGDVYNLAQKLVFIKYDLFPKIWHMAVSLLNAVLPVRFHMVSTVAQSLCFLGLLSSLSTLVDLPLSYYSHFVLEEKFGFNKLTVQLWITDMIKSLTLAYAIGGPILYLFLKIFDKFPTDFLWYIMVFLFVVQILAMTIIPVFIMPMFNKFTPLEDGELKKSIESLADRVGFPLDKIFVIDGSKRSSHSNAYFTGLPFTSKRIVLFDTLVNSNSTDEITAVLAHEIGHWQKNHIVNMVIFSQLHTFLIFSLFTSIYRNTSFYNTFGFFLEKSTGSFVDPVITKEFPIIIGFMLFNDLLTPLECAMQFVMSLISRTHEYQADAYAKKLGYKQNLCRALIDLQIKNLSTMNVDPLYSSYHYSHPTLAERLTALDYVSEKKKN
Paired box protein Pax-8, sequence (Q06710 whole entry): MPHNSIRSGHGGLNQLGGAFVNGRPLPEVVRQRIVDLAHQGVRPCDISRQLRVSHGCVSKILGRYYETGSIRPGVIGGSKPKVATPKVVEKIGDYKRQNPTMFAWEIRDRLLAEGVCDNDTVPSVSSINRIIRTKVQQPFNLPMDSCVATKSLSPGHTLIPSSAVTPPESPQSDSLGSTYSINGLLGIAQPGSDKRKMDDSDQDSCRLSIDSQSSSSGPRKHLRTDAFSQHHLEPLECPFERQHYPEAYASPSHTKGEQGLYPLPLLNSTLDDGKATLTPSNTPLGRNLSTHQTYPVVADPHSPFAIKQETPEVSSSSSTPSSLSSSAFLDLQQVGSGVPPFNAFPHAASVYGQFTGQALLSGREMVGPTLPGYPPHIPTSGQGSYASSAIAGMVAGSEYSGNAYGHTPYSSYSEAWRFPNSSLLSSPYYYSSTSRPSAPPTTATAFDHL
Disintegrin and metalloproteinase domain-containing protein 17, sequence (P78536 whole entry, the tested form may be a part): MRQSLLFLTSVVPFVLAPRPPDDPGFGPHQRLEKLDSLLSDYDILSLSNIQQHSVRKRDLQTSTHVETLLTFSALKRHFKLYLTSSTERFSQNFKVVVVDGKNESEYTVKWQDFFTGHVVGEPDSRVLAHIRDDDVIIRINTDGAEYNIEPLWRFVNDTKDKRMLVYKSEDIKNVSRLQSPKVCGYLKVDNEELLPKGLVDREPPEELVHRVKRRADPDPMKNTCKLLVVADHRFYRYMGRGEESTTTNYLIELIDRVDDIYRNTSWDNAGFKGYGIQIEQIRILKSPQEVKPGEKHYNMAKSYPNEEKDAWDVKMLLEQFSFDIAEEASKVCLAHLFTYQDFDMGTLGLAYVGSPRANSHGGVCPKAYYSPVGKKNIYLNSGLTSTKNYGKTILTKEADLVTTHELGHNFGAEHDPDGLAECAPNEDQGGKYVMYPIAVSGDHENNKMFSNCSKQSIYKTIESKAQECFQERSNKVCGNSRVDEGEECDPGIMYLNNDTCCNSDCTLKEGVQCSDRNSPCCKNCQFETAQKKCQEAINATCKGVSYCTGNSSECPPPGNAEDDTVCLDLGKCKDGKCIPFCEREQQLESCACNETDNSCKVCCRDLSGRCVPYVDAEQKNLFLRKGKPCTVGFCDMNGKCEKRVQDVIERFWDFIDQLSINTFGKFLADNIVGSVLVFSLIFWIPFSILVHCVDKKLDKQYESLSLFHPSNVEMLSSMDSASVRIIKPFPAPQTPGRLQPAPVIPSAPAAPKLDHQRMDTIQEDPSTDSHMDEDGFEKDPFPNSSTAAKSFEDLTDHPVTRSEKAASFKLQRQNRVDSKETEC
Lysine-specific demethylase 4C, sequence (Q9H3R0 whole entry): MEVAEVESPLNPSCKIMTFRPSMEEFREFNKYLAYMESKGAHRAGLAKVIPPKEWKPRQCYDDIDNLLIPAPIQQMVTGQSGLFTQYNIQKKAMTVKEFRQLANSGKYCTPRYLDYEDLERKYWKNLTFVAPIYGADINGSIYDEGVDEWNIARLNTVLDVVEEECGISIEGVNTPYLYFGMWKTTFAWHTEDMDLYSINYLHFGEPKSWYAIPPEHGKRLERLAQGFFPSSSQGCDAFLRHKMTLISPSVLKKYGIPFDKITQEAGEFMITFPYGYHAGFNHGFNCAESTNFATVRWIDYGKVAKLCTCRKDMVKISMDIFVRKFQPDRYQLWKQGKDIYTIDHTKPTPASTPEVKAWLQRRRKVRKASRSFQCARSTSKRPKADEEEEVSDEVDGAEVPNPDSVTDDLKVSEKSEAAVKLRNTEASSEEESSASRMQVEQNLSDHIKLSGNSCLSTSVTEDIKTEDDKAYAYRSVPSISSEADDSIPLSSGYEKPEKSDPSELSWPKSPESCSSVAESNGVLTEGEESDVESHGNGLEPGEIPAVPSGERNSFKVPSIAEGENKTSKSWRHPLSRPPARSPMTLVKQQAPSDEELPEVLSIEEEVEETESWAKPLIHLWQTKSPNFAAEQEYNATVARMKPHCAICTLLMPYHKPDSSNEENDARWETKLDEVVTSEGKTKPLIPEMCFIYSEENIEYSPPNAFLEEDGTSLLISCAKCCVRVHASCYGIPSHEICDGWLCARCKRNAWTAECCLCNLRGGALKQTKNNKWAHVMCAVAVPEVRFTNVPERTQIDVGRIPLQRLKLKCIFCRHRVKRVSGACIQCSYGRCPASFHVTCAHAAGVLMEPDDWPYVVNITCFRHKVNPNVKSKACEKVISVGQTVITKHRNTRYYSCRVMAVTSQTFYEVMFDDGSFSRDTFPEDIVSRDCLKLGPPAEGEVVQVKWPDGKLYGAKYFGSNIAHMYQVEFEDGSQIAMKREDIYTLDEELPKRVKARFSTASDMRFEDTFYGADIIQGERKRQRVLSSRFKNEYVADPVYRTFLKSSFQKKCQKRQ

Q: For NC(=O)[C@H]1CC2(CC(c3cccc(NC(=O)COc4ccc(Cl)cc4)c3)=NO2)CN1C(=O)C(c1ccccc1)c1ccccc1 (stereo partly drawn), which AC50 (CAAX prenyl protease 2) is on record?
A: The AC50 was 2.68 µM (active).

Q: What about the AC50 (CAAX prenyl protease 1) of the same molecule?
A: The AC50 was 5.73 µM (active).

Q: And the AC50 (Paired box protein Pax-8)?
A: The AC50 was 15.7 µM (active).

Q: And the IC50 [1]?
A: The IC50 was > 69.5 µM (inactive).

Q: And the IC50 [2]?
A: Its IC50 is > 69.5 µM (inactive).

Q: Which IC50 [3] does the source give for COc1ccc(OC)c(N2C(=O)/C(=C/c3ccco3)C(=O)NC2=S)c1 here?
A: Its IC50 is < 1.23 µM (inactive).

Q: And the IC50 [4]?
A: The IC50 was > 55.7 µM (not active).

Q: And the IC50 [5]?
A: The IC50 was 8.01 µM (active).

Q: And the IC50 [6]?
A: Its IC50 is < 1.23 µM (inactive).

Q: What about the IC50 [7] of the same molecule?
A: Its IC50 is < 1.23 µM (not active).

Q: What about the IC50 (Hexokinase HKDC1) of the same molecule?
A: The IC50 was 2.57 µM (active).

Q: What about the AC50 [8] of the same molecule?
A: Its AC50 is 16.2 µM (active).

Q: What about the AC50 [9] of the same molecule?
A: The AC50 was 4.67 µM (active).

Q: For Brc1ccc2c(c1)-c1ccccc1C1=NCCN12, which EC50 (HEK293 [10]) is on record?
A: The EC50 was > 59.8 µM (inactive).

Q: What about the EC50 (HEK293 [11]) of the same molecule?
A: Its EC50 is > 59.8 µM (inactive).

Q: For Nc1ncnc2c1ccn2[C@@H]1O[C@H](CO)[C@@H](O)[C@H]1O [TUBERCIDIN], which EC50 [12] is on record?
A: Its EC50 is < 0.1 µM (active).

Q: And the EC50 [13]?
A: Its EC50 is 0.252 µM (active).

Q: And the EC50 (BJ [14])?
A: The EC50 was 2.08 µM (inconclusive).

Q: And the EC50 (cells)?
A: The EC50 was 0.223 µM (active).

Q: And the EC50 [15]?
A: The EC50 was 3.06 µM (active).

Q: And the EC50 [16]?
A: Its EC50 is < 0.1 µM (active).

Q: What about the EC50 (BJ [17]) of the same molecule?
A: Its EC50 is 5.45 µM (inconclusive).

Q: What about the EC50 (BJ [18]) of the same molecule?
A: Its EC50 is 5.04 µM (active).

Q: And the EC50 [19]?
A: Its EC50 is 4.12 µM (active).

Q: And the EC50 [20]?
A: The EC50 was 0.204 µM (active).

Q: And the IC50 (Jurkat)?
A: Its IC50 is 7.83 µM (active).

Q: What about the IC50 [21] of the same molecule?
A: Its IC50 is > 80 µM (inactive).

Q: What about the EC50 (BJ [22]) of the same molecule?
A: The EC50 was < 0.104 µM (active).

Q: And the AC50 [23]?
A: The AC50 was 0.0912 µM (active).

Q: What about the AC50 [24] of the same molecule?
A: Its AC50 is 0.25 µM (active).

Q: What about the AC50 [25] of the same molecule?
A: Its AC50 is 2.77 µM (active).

Q: And the AC50 [26]?
A: The AC50 was 3.98 µM (active).

Q: What about the AC50 [27] of the same molecule?
A: The AC50 was 1.6 µM (active).
